These results are taken from ChEMBL document CHEMBL5729324, “Aromatic heterocyclic substituted olefin compound, preparation method for same, pharmaceutical composition of same, and applications thereof” (2022).

The experiment concerns the target T1, TGF-beta receptor type-1 (Homo sapiens, UniProt P36897).
T1 sequence (P36897 whole entry): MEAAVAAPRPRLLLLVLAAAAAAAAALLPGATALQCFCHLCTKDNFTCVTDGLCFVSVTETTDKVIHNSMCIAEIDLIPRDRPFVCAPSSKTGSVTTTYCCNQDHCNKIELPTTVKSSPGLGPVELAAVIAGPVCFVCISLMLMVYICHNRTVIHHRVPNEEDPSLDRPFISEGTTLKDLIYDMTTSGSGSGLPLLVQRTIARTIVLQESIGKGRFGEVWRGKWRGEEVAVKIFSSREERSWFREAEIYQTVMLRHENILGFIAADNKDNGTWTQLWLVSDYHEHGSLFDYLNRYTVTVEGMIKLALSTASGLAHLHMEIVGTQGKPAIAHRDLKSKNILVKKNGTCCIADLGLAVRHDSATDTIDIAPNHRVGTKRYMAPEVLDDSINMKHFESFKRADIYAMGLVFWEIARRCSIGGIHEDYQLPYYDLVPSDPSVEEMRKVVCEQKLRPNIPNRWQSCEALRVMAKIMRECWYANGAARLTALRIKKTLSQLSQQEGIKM
The experiment can be described thus: Enzyme Activity Inhibition: 1. Preparation of a 1× kinase buffer: 40 mM Tris (pH 7.5), 20 mM MgCl2, 0.10% BSA, 1 mM DTT.2. Compound preparation: The final detection concentration of the compound was 10 μM, which was prepared to a 100-fold concentration, i.e., 1 mM. 100 μL of the 100-fold compound was added in the second well of the 384-well plate, and 60 μL of 100% DMSO was added to the other wells. […] 50 nL of the compound was transferred to the reaction plate with echo.3. Kinase reaction: The kinase was added to a 1× kinase buffer to form a 2× enzyme solution. […] The polypeptide TGFbR1 (purchased from Signal Chem, catalog number T36-58) and ATP were added to a 1× kinase buffer to form a 2× substrate solution. The final concentration of the substrate solution was peptide TGFbR1 0.1 mg/mL, ATP 7 μM. 2.5 μL of the 2× enzyme solution was added to the 384-well reaction plate (there was already 50 nL of 100% DMSO dissolved compound), and a 1× kinase buffer was added to a negative control well. The reaction solution was incubated at room temperature for 10 minutes. 2.5 μL of 2× substrate solution was added to the 384-well reaction plate. The 384-well plate was covered and incubated at 30° C. for 1 hour. ADP-Glo reagent (purchased from Promege, catalog number v9102) was equilibrated to room temperature. 5 μL of ADP-Glo reagent was transferred to the reaction well of the 384-well plate to stop the reaction.4. Detection of reaction results: 10 μL of kinase detection reagent was transferred to each well, shaken for 1 minute, and let stand at room temperature for 30 minutes. The sample luminescence value was read at Synegy.

pIC50: −log10 of the molar value.

As for `CCOC(=O)c1cnc2ccc(/C=C\c3cccc(OC)n3)cn12`, the pIC50 is 7.25.

`CNC(=O)/C(=C/c1cccc(C)n1)c1ccc2ncc(C(N)=O)n2c1`: the pIC50 was 6.68.

`Cc1cccc(/C=C\c2ccc3ncc(-c4nnn[nH]4)n3c2)n1` gave a pIC50 of 7.68.

`Cc1cccc(/C=C\c2ccc3ncc(C(=O)NCCN4CCOCC4)n3c2)n1` showed a pIC50 of 7.36.

The compound `Cc1csc(/C=C\c2ccc3ncc(C(N)=O)n3c2)n1` had a pIC50 of 7.48.

As to `Cc1cccc(/C=C(/C(=O)N2CCCCC2)c2ccc3ncc(C#N)n3c2)n1`, the pIC50 was 5.31.

As to `Cc1cccc(/C=C\c2ccc3ncc(C#N)n3c2)n1`, the pIC50 is 7.60.

In turn, `Cc1ccc(F)c(/C=C\c2ccc3ncc(C(N)=O)n3c2)n1` gave a pIC50 of 8.07.

In the case of `Cc1cccc(/C=C(/C(N)=O)c2ccc3ncc(C(N)=O)n3c2)n1`, the negative logarithm of the IC50 (pIC50) was 6.48.

In turn, `Cc1cccc(/C=C/c2ccc3ncc(C(N)=O)n3c2)n1` showed a pIC50 of 6.43.

For `Cc1cccc(/C=C(/C(=O)N2CCCCC2)c2ccc3ncc(C(N)=O)n3c2)n1`, the pIC50 was 7.24. Against the preceding compound, the pIC50 is 0.81 log units higher.

Turning to `COC(=O)/C(=C/c1cccc(C)n1)c1ccc2ncc(C(N)=O)n2c1`, the pIC50 was 8.13.

The compound `COc1cccc(/C=C\c2ccc3ncc(C(N)=O)n3c2)n1` showed a pIC50 of 7.82.

As a reminder, the pIC50 is the negative decadic logarithm of the IC50, by convention in mol/L.
